From patent publication US9593084B2 (Parion Sciences, Inc., priority 2012, dated 2017) come the findings set out here.

Marks after values point to notes of the source that are not given here.

The target in test [1] is T1, epithelial sodium channel (Canis lupus familiaris, UniProt A0A8I3MKE6+A0A8I3Q679+Q95165).
T1 construct: endogenous in cells; host or cells: primary canine bronchial epithelial cells cultured at air-liquid interface
T1 sequence (A0A8I3Q679 1-649): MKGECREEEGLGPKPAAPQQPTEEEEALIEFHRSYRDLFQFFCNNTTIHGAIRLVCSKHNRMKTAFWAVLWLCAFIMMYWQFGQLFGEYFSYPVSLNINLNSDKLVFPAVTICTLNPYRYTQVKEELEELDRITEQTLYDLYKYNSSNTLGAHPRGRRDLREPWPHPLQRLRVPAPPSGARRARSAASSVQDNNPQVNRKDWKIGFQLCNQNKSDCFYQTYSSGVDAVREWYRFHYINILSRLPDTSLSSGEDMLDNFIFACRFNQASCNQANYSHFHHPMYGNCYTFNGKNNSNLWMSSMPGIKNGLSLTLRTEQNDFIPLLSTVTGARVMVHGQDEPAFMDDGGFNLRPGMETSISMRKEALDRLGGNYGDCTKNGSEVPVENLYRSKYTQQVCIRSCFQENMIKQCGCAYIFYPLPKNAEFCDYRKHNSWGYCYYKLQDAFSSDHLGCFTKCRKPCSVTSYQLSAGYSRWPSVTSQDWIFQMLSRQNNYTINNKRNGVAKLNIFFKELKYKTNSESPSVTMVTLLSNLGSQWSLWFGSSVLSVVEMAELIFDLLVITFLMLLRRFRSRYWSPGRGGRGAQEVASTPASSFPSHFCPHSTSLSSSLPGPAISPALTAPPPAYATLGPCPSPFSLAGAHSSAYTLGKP
T1 sequence (Q95165 1-641): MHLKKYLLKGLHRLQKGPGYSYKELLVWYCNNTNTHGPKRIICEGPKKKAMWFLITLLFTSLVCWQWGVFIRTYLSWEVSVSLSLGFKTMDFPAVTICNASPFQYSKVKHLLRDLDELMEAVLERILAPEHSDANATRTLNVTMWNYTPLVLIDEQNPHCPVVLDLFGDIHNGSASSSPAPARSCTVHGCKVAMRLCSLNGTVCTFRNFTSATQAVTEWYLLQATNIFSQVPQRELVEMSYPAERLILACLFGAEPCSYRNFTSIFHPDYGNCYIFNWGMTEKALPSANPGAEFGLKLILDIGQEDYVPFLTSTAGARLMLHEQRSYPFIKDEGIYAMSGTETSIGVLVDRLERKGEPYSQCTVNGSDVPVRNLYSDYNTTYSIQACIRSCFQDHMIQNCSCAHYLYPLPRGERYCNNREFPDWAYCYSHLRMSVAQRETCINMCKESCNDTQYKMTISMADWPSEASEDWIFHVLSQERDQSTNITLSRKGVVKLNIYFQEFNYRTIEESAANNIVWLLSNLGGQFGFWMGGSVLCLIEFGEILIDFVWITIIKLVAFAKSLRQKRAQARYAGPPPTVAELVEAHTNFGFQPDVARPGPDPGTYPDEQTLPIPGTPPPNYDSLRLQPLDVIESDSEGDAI
T1 sequence (A0A8I3MKE6 1-646): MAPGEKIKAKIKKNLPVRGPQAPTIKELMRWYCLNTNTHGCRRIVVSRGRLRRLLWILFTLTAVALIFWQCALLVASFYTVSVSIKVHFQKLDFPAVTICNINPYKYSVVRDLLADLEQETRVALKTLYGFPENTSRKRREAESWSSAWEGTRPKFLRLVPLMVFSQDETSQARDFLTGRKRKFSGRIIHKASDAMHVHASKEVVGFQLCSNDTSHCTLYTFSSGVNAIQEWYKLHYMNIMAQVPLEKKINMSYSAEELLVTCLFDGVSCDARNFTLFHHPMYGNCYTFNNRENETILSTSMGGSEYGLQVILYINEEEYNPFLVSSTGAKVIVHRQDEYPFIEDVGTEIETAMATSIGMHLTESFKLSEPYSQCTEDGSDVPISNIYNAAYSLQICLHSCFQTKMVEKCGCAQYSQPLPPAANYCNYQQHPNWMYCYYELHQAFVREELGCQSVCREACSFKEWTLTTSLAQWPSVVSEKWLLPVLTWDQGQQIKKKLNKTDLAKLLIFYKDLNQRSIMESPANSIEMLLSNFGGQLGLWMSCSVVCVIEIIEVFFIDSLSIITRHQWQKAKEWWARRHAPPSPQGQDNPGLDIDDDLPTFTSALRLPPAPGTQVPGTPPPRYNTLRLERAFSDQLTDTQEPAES
Description: Inhibition of short-circuit current (ISC) in airway epithelial monolayers in Ussing chambers. It counts as cell-based, canine. The note with it: canine bronchial epithelial cells, short-circuit current; read-out: Potency of Sodium Channel Blockade IC50. As for the experimental part: One assay used to assess mechanism of action and/or potency of the compounds of the present invention involves the determination of lumenal drug inhibition of airway epithelial sodium currents measured under short circuit current (ISC) using airway epithelial monolayers mounted in Using chambers. Cells obtained from freshly excised human, dog, sheep or rodent airways are seeded onto porous 0.4 micron Snapwelff Inserts (CoStar), cultured at air-liquid interface (ALI) conditions in hormonally defined media, and assayed for sodium transport activity (ISC) while bathed in Krebs Bicarbonate Ringer (KBR) in Using chambers. All test drug additions are to the lumenal bath with half-log dose addition protocols (from 1×10^−11 M to 3×10^−5 M), and the cumulative change in ISC (inhibition) recorded. All drugs are prepared in dimethyl sulfoxide as stock solutions at a concentration of 1×10^−2 M and stored at −20° C. […] After the maximal concentration ([…]) is administered, the lumenal bath is exchanged three times with fresh drug-free KBR solution, and the resultant ISC measured after each wash for approximately 5 minutes in duration. Reversibility is defined as the percent return to the baseline value for sodium current after the third wash. All data from the voltage clamps are collected via a computer interface and analyzed off-line.
Dose-effect relationships for all compounds are considered and analyzed by the Prism 3.0 program.

In test [2] the test system is Sheep MCC. Description: Mucociliary clearance (MCC) studies in sheep. It is filed as in vivo. The note with it: sheep. As for the experimental part: The animal model that has been used most often to measure changes in MCC is the sheep model. The effect of compounds for enhancing mucociliary clearance (MCC) can be measured using an in vivo model described by Sabater et al., Journal of Applied Physiology, 1999, pp. 2191-2196, incorporated herein by reference.
In these studies, adult sheep were restrained and nasally intubated with an endotracheal tube. Aerosolized test articles were administered over 10-15 minutes to sheep. Radiolabeled ^99mTc-sulfur colloid (TSC, 3.1 mg/mL; containing approximately 20 mCi) was then administered at a specified time four or eight hours after test article. The radiolabeled aerosol was administered through the endotracheal tube for about 5 minutes. The sheep were then extubated, and total radioactive counts in the lung were measured every 5 minutes for a 1-hour observation period. The rate of radiolabel clearance from the lung is representative of the MCC rate in the animal. The advantage of this system is that it closely simulates the human lung environment. The model also allows for the collection of simultaneous PK/PD information through plasma and urine sampling over the test period. There are also several techniques to measure the drug concentrations on the airway surface during the MCC measurements. These include the collection of exhaled breath condensates or a filter paper method to obtain ASL via bronchoscopy.
The ovine model described above was used to evaluate the in vivo effects (efficacy/durability) of aerosol-delivered test agent on MCC. Treatments consisting of either 4 mL of test agent or test agent in combination with HS were tested. To determine if combining HS with test agent enhanced MCC, HS was administered immediately following test agent administration. Test solutions were aerosolized using a Raindrop nebulizer at a flowrate of eight liters per minute and connected to a dosimetry system consisting of a solenoid valve and a source of compressed air (20 psi). The deposited dose of drug in sheep lungs after an aerosol administration using the Raindrop nebulizer is estimated to be 8-15% of the dose. Using a Raindrop nebulizer, radiolabeled TSC was administered over approximately 3 minutes either 4 or 8 hours after drug treatment to evaluate efficacy/durability. Radioactive counts were measured in a central region in the right lung at 5 min intervals for one hour with a gamma camera. Three methods of analysis were utilized, 1) initial rate of clearance (slope) over the first 30 min fitted using linear regression 2) area under the curve for % clearance over time over one hour, and 3) the maximum clearance obtained in one hour.

Setting [3] is: aerosol, 0.24 nmol/kg (3 μM), MCC at 8 h post-dose.

By IC50 is commonly meant the concentration that inhibits the measured activity by half.

With `N=C(NCCCCc1ccc(C[C@H](N)C(=O)O)c2ccccc12)NC(=O)c1nc(Cl)c(N)nc1N` [Compound 16, (S)-2-amino-3-(4-(4-(3-(3,5-diamino-6-chloropyrazine-2-carbonyl)guanidino)butyl)naphthalen-1-yl)propanoic acid], the half-inhibitory concentration (IC50) in test [1] worked out at 79.6 nM.

Take `CN(C)CCCc1ccc(NC(=O)[C@@H](N)Cc2ccc(CCCCNC(=N)NC(=O)c3nc(Cl)c(N)nc3N)c3ccccc23)cc1` [Compound 23, (S)-3,5-diamino-N—(N-(4-(4-(2-amino-3-(4-(3-(dimethylamino)propyl)phenylamino)-3-oxopropyl)naphthalen-1-yl)butyl)carbamimidoyl)-6-chloropyrazine-2-carboxamide]: in test [1], the half-inhibitory concentration (IC50) turned out to be 20.7 nM.

For the molecule `CCCCCCN(CCCc1ccc(NC(=O)[C@@H](N)Cc2ccc(CCCCNC(=N)NC(=O)c3nc(Cl)c(N)nc3N)c3ccccc23)cc1)C[C@H](O)[C@@H](O)[C@H](O)[C@H](O)CO` [Compound 28, 3,5-diamino-N—(N-(4-(4-((S)-2-amino-3-(4-(3-(hexyl((2S,3R,4R,5R)-2,3,4,5,6-pentahydroxyhexyl)amino)propyl)phenylamino)-3-oxopropyl)naphthalen-1-yl)butyl)carbamimidoyl)-6-chloropyrazine-2-carboxamide], the IC50 in test [1] is 7.4 nM.

For the molecule `N=C(NCCCCc1ccc(C[C@H](N)C(=O)Nc2ccc(CCCNC[C@H](O)[C@@H](O)[C@H](O)[C@H](O)CO)cc2)c2ccccc12)NC(=O)c1nc(Cl)c(N)nc1N` [Compound 38, 3,5-diamino-N—(N-(4-(4-((S)-2-amino-3-oxo-3-(4-(3-((2S,3R,4R,5R)-2,3,4,5,6-pentahydroxyhexylamino)propyl)phenylamino)propyl)naphthalen-1-yl)butyl)carbamimidoyl)-6-chloropyrazine-2-carboxamide], in test [1], the IC50 is 25.4 nM.

On to `CN(C)CCCCCCc1ccc(NC(=O)[C@@H](N)Cc2ccc(CCCCNC(=N)NC(=O)c3nc(Cl)c(N)nc3N)c3ccccc23)cc1` [Compound 43, (S)-3,5-diamino-N—(N-(4-(4-(2-amino-3-(4-(6-(dimethylamino)hexyl)phenylamino)-3-oxopropyl)naphthalen-1-yl)butyl)carbamimidoyl)-6-chloropyrazine-2-carboxamide], for which the 50% inhibitory concentration (IC50) in test [1] turned out to be 50.1 nM.

`N=C(NCCCCc1ccc(C[C@H](N)C(=O)Nc2ccc(CCCCCCNC[C@H](O)[C@@H](O)[C@H](O)[C@H](O)CO)cc2)c2ccccc12)NC(=O)c1nc(Cl)c(N)nc1N` [Compound 53, 3,5-diamino-N—(N-(4-(4-((S)-2-amino-3-oxo-3-(4-(6-((2S,3R,4R,5R)-2,3,4,5,6-pentahydroxyhexylamino)hexyl)phenylamino)propyl)naphthalen-1-yl)butyl)carbamimidoyl)-6-chloropyrazine-2-carboxamide]: the half-maximal inhibitory concentration (IC50) in test [1] was 15.5 nM.

With `CCCCCCN(CCCCCCc1ccc(NC(=O)[C@@H](N)Cc2ccc(CCCCNC(=N)NC(=O)c3nc(Cl)c(N)nc3N)c3ccccc23)cc1)C[C@H](O)[C@@H](O)[C@H](O)[C@H](O)CO` [Compound 58, 3,5-diamino-N—(N-(4-(4-((S)-2-amino-3-(4-(6-(hexyl((2S,3R,4R,5R)-2,3,4,5,6-pentahydroxyhexyl)amino)hexyl)phenylamino)-3-oxopropyl)naphthalen-1-yl)butyl)carbamimidoyl)-6-chloropyrazine-2-carboxamide], the 50% inhibitory concentration (IC50) in test [1] came out at 10.6 nM.

For `N=C(NCCCCc1ccc2cc(C[C@H](N)C(=O)O)ccc2c1)NC(=O)c1nc(Cl)c(N)nc1N` [Compound 80, (S)-2-amino-3-(6-(4-(3-(3,5-diamino-6-chloropyrazine-2-carbonyl)guanidino)butyl)naphthalen-2-yl)propanoic acid], the IC50 in test [1] turned out to be 19.4 nM.

With `N=C(NCCCCc1ccc(C[C@@H](N)C(=O)Nc2ccc(CCCN(C[C@H](O)[C@@H](O)[C@H](O)[C@H](O)CO)C[C@H](O)[C@@H](O)[C@H](O)[C@H](O)CO)cc2)c2ccccc12)NC(=O)c1nc(Cl)c(N)nc1N` [Compound 152, 3,5-diamino-N—(N-(4-(4-((R)-2-amino-3-(4-(3-(bis((2S,3R,4R,5R)-2,3,4,5,6-pentahydroxyhexyl)amino)propyl)phenylamino)-3-oxopropyl)naphthalen-1-yl)butyl)carbamimidoyl)-6-chloropyrazine-2-carboxamide], the “duration of action on MCC vs. vehicle” value in test [2] (8 hours post dose) is “enhanced duration action of MCC vs. vehicle”. Besides, in test [2] (setting [3]), the “AUC (% Cl-h)” value is on record as 17.4* (4) % Cl-h and the “Initial Slope (8.0-8.5 h)” value was 37.5* (4).
